In paper PMC5290327, “SC83288 is a clinical development candidate for the treatment of severe malaria” (Nature Communications, 2017):
Read-outs that look alike come from different tables or passages of the source.

Legend:
[1] = In vitro metabolism in liver microsomes; conditions: dog liver microsomes, 10 μM
[2] = In vitro metabolism in liver microsomes; conditions: rat liver microsomes, 10 μM
Ames test = conditions: 50 μM
CYP2B6 = CYP2B6 (Homo sapiens, UniProt P20813); assay: CYP inhibition, human liver microsomes; conditions: CYP2B6, bupropion to OH-bupropion, 10 µM
Chain of CYP2B6 (P20813 whole entry): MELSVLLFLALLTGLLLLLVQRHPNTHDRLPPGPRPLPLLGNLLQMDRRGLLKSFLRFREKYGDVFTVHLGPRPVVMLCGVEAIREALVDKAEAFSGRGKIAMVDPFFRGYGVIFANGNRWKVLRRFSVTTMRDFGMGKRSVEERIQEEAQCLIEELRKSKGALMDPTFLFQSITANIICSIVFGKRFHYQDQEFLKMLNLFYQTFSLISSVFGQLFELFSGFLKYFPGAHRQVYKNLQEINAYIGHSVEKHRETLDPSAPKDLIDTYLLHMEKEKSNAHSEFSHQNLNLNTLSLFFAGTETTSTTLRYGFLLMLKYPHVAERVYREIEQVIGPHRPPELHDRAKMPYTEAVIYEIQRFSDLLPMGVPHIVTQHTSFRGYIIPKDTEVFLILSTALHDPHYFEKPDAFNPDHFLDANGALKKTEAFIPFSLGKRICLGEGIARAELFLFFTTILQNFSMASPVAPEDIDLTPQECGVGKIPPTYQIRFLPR

[3] = test system: 13 human cytochrome P450 enzymes; assay: Inhibition of cytochrome P450 enzymes, whole panel; conditions: 10 μM
5-HT7 (h) = biological target: T1, 5-HT7 (h) (Homo sapiens, UniProt P34969); assay: Radioligand binding
T1 construct: Cerep (contract screening)
T1 sequence (P34969 whole entry): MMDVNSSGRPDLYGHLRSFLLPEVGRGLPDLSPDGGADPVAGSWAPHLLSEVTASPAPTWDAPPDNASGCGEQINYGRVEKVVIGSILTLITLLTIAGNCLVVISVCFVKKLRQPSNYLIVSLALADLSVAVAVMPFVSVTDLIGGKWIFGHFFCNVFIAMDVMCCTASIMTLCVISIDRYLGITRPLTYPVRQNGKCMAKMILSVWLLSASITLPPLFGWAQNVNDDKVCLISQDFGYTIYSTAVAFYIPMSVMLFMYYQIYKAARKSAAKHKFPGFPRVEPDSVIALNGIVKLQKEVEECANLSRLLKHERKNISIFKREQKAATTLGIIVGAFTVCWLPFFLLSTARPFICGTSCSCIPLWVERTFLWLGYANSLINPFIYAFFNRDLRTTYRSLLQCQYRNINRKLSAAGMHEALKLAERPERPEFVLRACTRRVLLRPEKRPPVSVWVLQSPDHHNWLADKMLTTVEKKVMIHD

M3 (h) = biological target: T2, M3 (h) (Homo sapiens, UniProt P20309); assay: Radioligand binding
T2 construct: Cerep
T2 sequence (P20309 whole entry): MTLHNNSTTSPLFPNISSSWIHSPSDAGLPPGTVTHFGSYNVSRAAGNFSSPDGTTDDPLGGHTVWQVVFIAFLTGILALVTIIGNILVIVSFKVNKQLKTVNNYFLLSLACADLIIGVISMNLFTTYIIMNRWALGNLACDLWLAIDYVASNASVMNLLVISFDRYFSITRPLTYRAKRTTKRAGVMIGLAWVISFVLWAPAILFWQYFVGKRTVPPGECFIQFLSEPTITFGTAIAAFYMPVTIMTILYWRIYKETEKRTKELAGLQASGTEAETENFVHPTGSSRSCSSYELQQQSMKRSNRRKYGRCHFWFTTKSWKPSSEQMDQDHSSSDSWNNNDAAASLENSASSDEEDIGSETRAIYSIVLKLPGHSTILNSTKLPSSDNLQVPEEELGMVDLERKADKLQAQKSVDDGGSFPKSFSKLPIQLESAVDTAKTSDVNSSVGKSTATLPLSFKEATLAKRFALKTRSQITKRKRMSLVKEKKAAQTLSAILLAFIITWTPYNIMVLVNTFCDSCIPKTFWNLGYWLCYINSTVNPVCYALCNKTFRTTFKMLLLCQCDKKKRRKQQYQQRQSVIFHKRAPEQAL

[4] = In vitro metabolism in liver microsomes; conditions: for remaining after 60 min of incubation: human liver microsomes, 10 μM; for microsomal CLint at 10 μM: human, liver microsomes
PK study = assay type: in vivo, mouse; conditions: for half-life: mouse; for MRT last: read-out: MRT0-t; for time of peak plasma concentration (Cmax): single i.p. dose in mice
Experimental: On the treatment day, all animals were weighed and the dosing volume was calculated for each individual animal according to its actual body weight. All animal were dosed once. Blood samples were taken at different time points and plasma was collected after centrifugation (10,000g, 10 min, 4 °C). Plasma samples were analysed by LC–MS/MS. […] All relevant observations were recorded. The PK studies in cynomolgus monkeys and beagle dogs were performed by the Laboratory of Pharmacology and Toxicology (LPT), Hamburg, and PK and toxicity studies in mice and rats were performed by the 4SC Discovery GmbH, Munich. PK parameters were obtained by a non-compartment analysis, using Kinetica 4.1 (Thermo Scientific).

CYP2C8 = CYP2C8 (Homo sapiens, UniProt P10632); assay: CYP inhibition, human liver microsomes; conditions: CYP2C8, amodiaquine to Desethylamodiaquine, 10 µM
Chain of CYP2C8 (P10632 whole entry): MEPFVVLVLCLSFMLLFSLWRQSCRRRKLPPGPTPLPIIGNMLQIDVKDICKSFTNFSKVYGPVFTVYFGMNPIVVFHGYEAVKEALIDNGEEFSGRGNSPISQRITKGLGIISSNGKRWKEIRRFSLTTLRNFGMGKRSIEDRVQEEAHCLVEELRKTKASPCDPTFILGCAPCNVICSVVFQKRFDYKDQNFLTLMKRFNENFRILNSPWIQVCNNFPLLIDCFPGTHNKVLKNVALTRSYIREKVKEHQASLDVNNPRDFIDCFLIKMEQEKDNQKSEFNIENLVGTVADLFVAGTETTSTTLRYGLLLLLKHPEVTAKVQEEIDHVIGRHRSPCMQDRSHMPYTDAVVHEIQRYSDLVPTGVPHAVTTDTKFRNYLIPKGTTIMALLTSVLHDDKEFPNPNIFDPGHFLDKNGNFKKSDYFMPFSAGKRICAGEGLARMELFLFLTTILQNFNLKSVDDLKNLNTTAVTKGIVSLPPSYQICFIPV

BZD (central) = assay: Radioligand binding
MT1 (ML1A) (h) = biological target: T3, MT1 (ML1A) (h) (Homo sapiens, UniProt P48039); assay: Radioligand binding
T3 construct: Cerep
T3 sequence (P48039 whole entry): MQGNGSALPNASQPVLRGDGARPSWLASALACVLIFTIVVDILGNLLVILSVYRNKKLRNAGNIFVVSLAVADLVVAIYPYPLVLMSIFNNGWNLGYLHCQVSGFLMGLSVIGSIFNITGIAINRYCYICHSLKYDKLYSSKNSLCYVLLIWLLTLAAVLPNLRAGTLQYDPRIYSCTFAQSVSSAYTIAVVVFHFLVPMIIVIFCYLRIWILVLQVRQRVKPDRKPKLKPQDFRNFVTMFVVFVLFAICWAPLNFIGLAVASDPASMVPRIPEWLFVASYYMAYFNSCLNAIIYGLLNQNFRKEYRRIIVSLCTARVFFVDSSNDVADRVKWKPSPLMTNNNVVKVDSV

CXCR2 (IL-8B) (h) = biological target: T4, CXCR2 (IL-8B) (h) (Homo sapiens, UniProt P25025); assay: Radioligand binding
T4 construct: Cerep
T4 sequence (P25025 1-360): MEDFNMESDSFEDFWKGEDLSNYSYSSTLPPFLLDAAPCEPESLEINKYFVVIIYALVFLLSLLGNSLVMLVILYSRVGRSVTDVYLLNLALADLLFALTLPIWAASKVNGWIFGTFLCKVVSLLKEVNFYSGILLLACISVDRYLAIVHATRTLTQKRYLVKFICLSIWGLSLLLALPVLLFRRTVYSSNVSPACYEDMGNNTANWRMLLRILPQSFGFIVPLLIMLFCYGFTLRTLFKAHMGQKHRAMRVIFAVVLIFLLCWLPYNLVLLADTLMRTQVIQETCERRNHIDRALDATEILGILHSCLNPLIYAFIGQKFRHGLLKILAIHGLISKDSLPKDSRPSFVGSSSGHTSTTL

KV channel = assay: Radioligand binding
401 human kinases = assay: Kinase competition assay, whole panel; assay type: binding; conditions: 10 μM
Experimental: The KINOMEscan was carried out by Ambit (San Diego, USA) according to a previously established protocol. The experiment was based on a competition binding assay that quantitatively measures the ability of a compound to compete with an immobilized, active-site directed ligand. The assay is performed by combining three components: DNA-tagged kinase; immobilized ligand; and a test compound. The ability of the test compound to compete with the immobilized ligand is measured via quantitative PCR of the DNA tag.
For most assays, kinase-tagged T7 phage strains were grown in parallel in 24-well blocks in an Escherichia coli host derived from the BL21 strain. E. coli were grown to log-phase and infected with T7 phage from a frozen stock and incubated with shaking at 32 °C until lysis (90–150 min). The lysates were centrifuged (6,000g) and filtered (0.2 μm) to remove cell debris. The remaining kinases were produced in HEK-293 cells (Sigma Aldrich, catalogue number: 85120602) and subsequently tagged with DNA for quantitative PCR detection. […] The liganded beads were blocked with excess biotin and washed with blocking buffer (SeaBlock (Pierce), 1% bovine serum albumin, 0.05% Tween 20 and 1 mM dithiothreitol) to remove unbound ligand and to reduce non-specific phage binding. […] The kinase concentration in the eluates was measured by quantitative PCR.

P. falciparum strain 3D7 = assay: Growth inhibition assay; assay type: cell-based; conditions: Plasmodium falciparum
Y1 (h) = biological target: T5, Y1 (h) (Homo sapiens, UniProt P25929); assay: Radioligand binding
T5 construct: Cerep
T5 sequence (P25929 whole entry): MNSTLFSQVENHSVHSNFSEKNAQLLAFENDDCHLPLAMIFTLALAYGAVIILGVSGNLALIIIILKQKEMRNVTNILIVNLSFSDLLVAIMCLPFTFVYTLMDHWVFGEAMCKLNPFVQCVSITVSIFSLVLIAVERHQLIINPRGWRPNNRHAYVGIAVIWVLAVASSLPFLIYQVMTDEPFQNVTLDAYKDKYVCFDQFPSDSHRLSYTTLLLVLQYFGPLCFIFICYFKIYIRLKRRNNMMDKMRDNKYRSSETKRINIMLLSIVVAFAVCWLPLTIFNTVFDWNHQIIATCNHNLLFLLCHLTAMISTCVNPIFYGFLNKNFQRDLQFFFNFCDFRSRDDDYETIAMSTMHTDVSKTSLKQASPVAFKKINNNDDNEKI

[5] = test system: human peripheral blood macrophages; assay: Cytotoxicity; conditions: 50 μM
M2 (h) = biological target: T6, M2 (h) (Homo sapiens, UniProt P08172); assay: Radioligand binding
T6 construct: Cerep
T6 sequence (P08172 whole entry): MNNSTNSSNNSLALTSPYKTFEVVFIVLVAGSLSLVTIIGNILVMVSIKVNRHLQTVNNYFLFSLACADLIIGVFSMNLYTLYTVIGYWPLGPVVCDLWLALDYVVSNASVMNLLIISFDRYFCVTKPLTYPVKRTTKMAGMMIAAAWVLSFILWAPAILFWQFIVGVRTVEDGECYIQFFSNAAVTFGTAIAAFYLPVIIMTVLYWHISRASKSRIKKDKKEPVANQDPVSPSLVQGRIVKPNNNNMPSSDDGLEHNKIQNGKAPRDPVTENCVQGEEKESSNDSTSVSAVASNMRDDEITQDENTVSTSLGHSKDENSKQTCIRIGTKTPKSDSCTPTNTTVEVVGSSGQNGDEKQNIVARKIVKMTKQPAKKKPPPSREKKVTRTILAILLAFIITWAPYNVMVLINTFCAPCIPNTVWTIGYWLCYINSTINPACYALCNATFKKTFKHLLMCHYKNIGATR

[6] = test system: 54 human transporters and receptors; assay: In vitro safety pharmacology profiling, whole panel; assay type: binding
Experimental: The study was carried out by Cerep (Celle l'Evescault, France). An in vitro pharmacological profiling panel was designed to detect potential high-risk clinical adverse drug reactions. The panel comprised of 54 targets.
The specific ligand binding to the receptors was defined as the difference between the total binding and the non-specific binding determined in the presence of an excess of unlabelled ligand. Results were expressed as a per cent of control specific binding and as a per cent inhibition of control specific obtained in the presence of the test compounds. Results showing an inhibition (or stimulation) >50% were considered to represent significant effects of the test compounds. […] The IC50 values were determined by non-linear regression analysis of the competition curves generated with mean replicate values using Hill equation curve fitting. The inhibition constants (Ki) were calculated using the Cheng Prusoff equation.

[7] = plasma, ip, mouse i.p. 20 mg kg^−1
[8] = plasma, iv, mouse i.v. 2 mg kg^−1

Compound	remaining after 60 min of incubation [1] [%]	remaining after 60 min of incubation [2] [%]	genotoxicity in a reverse Ames test (Ames test)	Remaining enzyme activity (CYP2B6) [%]	inhibition potential towards 13 human cytochrome P450 enzymes [3]	Inhibition of control specific binding (5-HT7 (h)) [%]	Inhibition of control specific binding (M3 (h)) [%]	remaining after 60 min of incubation [4]	time of peak plasma concentration (Cmax) (PK study) [min]	Remaining enzyme activity (CYP2C8) [%]	Inhibition of control specific binding (BZD (central)) [%]	Inhibition of control specific binding (MT1 (ML1A) (h)) [%]	Inhibition of control specific binding (CXCR2 (IL-8B) (h)) [%]	Inhibition of control specific binding (KV channel) [%]	interference with 401 human kinases (401 human kinases)	IC50 (P. falciparum strain 3D7) [nM]	Inhibition of control specific binding (Y1 (h)) [%]	in vitro propagation / cytotoxicity [5]	Inhibition of control specific binding (M2 (h)) [%]	binding potential to 54 human transporters and receptors [6]	further results
CCCCN1CCN(C(=N)c2cccc(NC(=O)Nc3ccc(S(=O)(=O)NCc4ccc(S(N)(=O)=O)cc4)cc3)c2)CC1 [SC81458, 4-(3-(3-((4-butylpiperazin-1-yl)(imino)methyl)phenyl)ureido)-N-(4-sulfamoylbenzyl) benzenesulfonamide]	37	74	no signs of genotoxicity	87	low	19	48	almost completely metabolized	≤ 30	95	16	-5	-8	0	did not interfere	13 ± 1	0	did not affect	45	low to moderate	microsomal CLint at 10 μM ([4]; monkey): 303 µL/min/mg; CL (PK study; mouse i.p. 20 mg kg^−1): 4,607 ml h^−1 kg^−1; half-life (PK study; plasma, ip, 20 mg/kg, mouse i.p. 20 mg kg^−1, read-out: t1/2 effective): 52 min; half-life (PK study; plasma, ip, 20 mg/kg, mouse i.p. 20 mg kg^−1, read-out: t1/2 terminal): 860 min; AUC(0-inf) (PK study; [7]): 4340 ng·h/mL; Cmax (PK study; [7]): 7380 ng/mL; Tmax (PK study; [7]): 30 min; bioavailability (PK study; plasma, ip, mouse i.p. 20 mg kg^−1, read-out: F, relative bioavailability compared to i.v.): 62%; MRT last (PK study; [7]): 74.4 min
COC(=O)N1CCN(C(=N)c2cccc(NC(=O)Nc3ccc(S(=O)(=O)NCc4ccc(S(N)(=O)=O)cc4)cc3)c2)CC1 [SC83288, methyl 4-(imino(3-(3-(4-(N-(4-sulfamoylbenzyl)sulfamoyl)phenyl)ureido)phenyl)methyl) piperazine-1-carboxylate]	83	91	no signs of genotoxicity	95	low	4	55	50%	≤ 30	89	70	-16	-1	2	did not interfere	8 ± 2	0	did not affect	68	low to moderate	microsomal CLint at 10 μM [4]: 75.8 ± 2.5 µL/min/mg; VC (PK study; mouse i.v. 2 mg kg^−1): 0.549 L/kg; half-life (PK study; plasma, ip, 10 mg/kg, mice, i.p. 2.5, 5.0 and 10.0 mg kg^−1, read-out: effective half time t1/2): 29 to 55 min; half-life (PK study; plasma, iv, 2 mg/kg, mouse i.v. 2 mg kg^−1, read-out: t1/2 effective): 12 min; half-life (PK study; plasma, iv, 2 mg/kg, mouse i.v. 2 mg kg^−1, read-out: t1/2 initial): 9 min; half-life (PK study; plasma, iv, 2 mg/kg, mouse i.v. 2 mg kg^−1, read-out: t1/2 terminal): 43 min; AUC(0-inf) (PK study; plasma, ip, mouse i.p. 10 mg kg^−1): 2020 ng·h/mL; AUC(0-inf) (PK study; [8]): 891 ng·h/mL; C0 (PK study; [8]): 3640 ng/mL; Cmax (PK study; [8]): 2560 ng/mL; Tmax (PK study; [8]): 5 min; clearance (PK study; [8]): 37.4 mL/min/kg; MRT last (PK study; [8]): 16.8 min
